From patent US8637498B2, “Oxopiperazine-azetidine amides and oxodiazepine-azetidine amides as monoacylglycerol lipase inhibitors” (Janssen Pharmaceutica, NV, priority 2010, dated 2014)
Changes are numbered by the printed parent chain. Like-named read-outs stand apart in the source and are kept apart here.

Assays:
[1] = molecular target: T1, purified wild type MGL (wt-MGLL 6H-11-313) (Homo sapiens, UniProt Q99685); assay: MGL Enzyme Activity Assay (wild type MGL, 4MU-B substrate); format: biochemical; conditions: wild type MGL 5 nM, 4MU-B 10 μM, 37° C.; read-out: MGL wild type inh IC50
T1 construct: wt-MGLL 6H-11-313; 6H (hexahistidine) (N)
T1 sequence (Q99685 1-303): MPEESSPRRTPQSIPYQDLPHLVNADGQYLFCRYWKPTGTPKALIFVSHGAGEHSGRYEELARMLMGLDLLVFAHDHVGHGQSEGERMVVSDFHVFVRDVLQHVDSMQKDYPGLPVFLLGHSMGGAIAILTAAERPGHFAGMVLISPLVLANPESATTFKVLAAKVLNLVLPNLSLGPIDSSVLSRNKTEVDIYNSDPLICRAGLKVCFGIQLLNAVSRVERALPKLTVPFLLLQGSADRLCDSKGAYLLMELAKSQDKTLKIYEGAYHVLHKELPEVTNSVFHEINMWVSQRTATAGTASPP
Experimental: (§1) All rate-based assays were performed in black 384-well polypropylene PCR microplates (Abgene) in a total volume of 30 μL. Substrate 4-methylumbelliferyl butyrate (4MU-B; Sigma) and either purified mutant MGL (mut-MGLL 11-313 L179S L186S) or purified wild type MGL (wt-MGLL 6H-11-313) were diluted separately into 20 mM PIPES buffer (pH=7.0), containing 150 mM NaCl and 0.001% Tween 20. Compounds of Formula (Ia) and (Ib) were pre-dispensed (50 nL) into the assay plate using a Cartesian Hummingbird prior to adding 4MU-B (25 μL of 1.2× solution to a final concentration of 10 μM) followed by enzyme (5 μL of a 6× solution to a final concentration of 5 nM) to initiate the reaction. Final compound concentrations ranged from 17 to 0.0003 μM. The fluorescence change due to 4MU-B cleavage was monitored with excitation and emission wavelengths of 335 and 440 nm, respectively, and a bandwidth of 10 nm (Safire^2, Tecan) at 37° C. for 5 min.
(§2) The IC50 values for compounds of Formula (Ia) or (Ib) were determined using Excel from a fit of the equation to the concentration-response plot of the fractional activity as a function of inhibitor concentration.

[2] = molecular target: T2, mutant MGL (Homo sapiens, UniProt Q99685, L169S/L176S); assay: MGL ThermoFluor Assay - Mutant; format: binding
T2 construct: mut-MGLL 11-313 L179S L186S
T2 sequence (Q99685 1-303 L169S/L176S): T1 sequence (Q99685 1-303) with L169S, L176S
Experimental: The ThermoFluor (TF) assay is a 384-well plate-based binding assay that measures thermal stability of proteins^1,2. The experiments were carried out using instruments available from Johnson & Johnson Pharmaceutical Research & Development, LLC. TF dye used in all experiments was 1,8-ANS (Invitrogen: A-47). Final TF assay conditions used for MGL studies were 0.07 mg/ml of mutant MGL, 100 μM ANS, 200 mM NaCl, 0.001% Tween-20 in 50 mM PIPES (pH=7.0).
Screening compound plates contained 100% DMSO compound solutions at a single concentration. For follow-up concentration-response studies, compounds were arranged in a pre-dispensed plate (Greiner Bio-one: 781280), wherein compounds were serially diluted in 100% DMSO across 11 columns within a series. Columns 12 and 24 were used as DMSO reference and contained no compound. For both single and multiple compound concentration-repsonse experiments, the compound aliquots (46 nL) were robotically predispensed directly into 384-well black assay plates (Abgene: TF-0384/k) using the Hummingbird liquid handler. Following compound dispension, protein and dye solutions were added to achieve the final assay volume of 3 μL. The assay solutions were overlayed with 1 μL of silicone oil (Fluka, type DC 200: 85411) to prevent evaporation.
Bar-coded assay plates were robotically loaded onto a thermostatically controlled PCR-type thermal block and then heated from 40 to 90° C. degrees at a ramp-rate of 1° C./min for all experiments. Fluorescence was measured by continuous illumination with UV light (Hamamatsu LC6), supplied via fiber optics and filtered through a band-pass filter (380-400 nm; >6 OD cutoff). Fluorescence emission of the entire 384-well plate was detected by measuring light intensity using a CCD camera (Sensys, Roper Scientific) filtered to detect 500±25 nm, resulting in simultaneous and independent readings of all 384 wells. A single image with 20-sec exposure time was collected at each temperature, and the sum of the pixel intensity in a given area of the assay plate was recorded vs temperature and fit to standard equations to yield the Tm^1. • 1. Pantoliano, M. W., Petrella, E. C., Kwasnoski, J. D., Lobanov, V. S., Myslik, J., Graf, E., Carver, T., Asel, E., Springer, B. A., Lane, P., and Salemme, F. R. (2001) J Biomol Screen 6, 429-40. • 2. Matulis, D., Kranz, J. K., Salemme, F. R., and Todd, M. J. (2005) Biochemistry 44, 5258-66.
The Kd values for compounds of Formula (Ia) and (Ib) were determined from a fit of the equation to the concentration-response plot of the fractional activity as a function of Tm. For some experiments, quantitative NMR spectroscopy (qNMR) was used to measure concentration of the initial 100% DMSO compound solutions and, using the same fitting method, qKd values were determined.

[3] = molecular target: T3, MGL (Rattus norvegicus, UniProt Q8R431); assay: 2-AG Accumulation Assay in rat brain homogenate; format: biochemical; conditions: compound @1 μM, 2-AG accumulation as percent of vehicle
T3 construct: one g rat brain was homogenized; from tissue; host or cells: rat brain homogenate
T3 sequence (Q8R431 1-303): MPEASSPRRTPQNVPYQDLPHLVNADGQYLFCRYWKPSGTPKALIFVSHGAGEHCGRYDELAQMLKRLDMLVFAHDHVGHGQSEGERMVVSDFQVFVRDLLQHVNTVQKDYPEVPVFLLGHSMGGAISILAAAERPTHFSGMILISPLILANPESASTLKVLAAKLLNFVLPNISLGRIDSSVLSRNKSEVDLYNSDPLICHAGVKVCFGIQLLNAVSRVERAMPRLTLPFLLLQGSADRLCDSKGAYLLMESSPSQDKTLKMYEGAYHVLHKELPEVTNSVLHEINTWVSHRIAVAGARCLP
Experimental: After a 15-min incubation time at 37° C., CaCl2 (final concentration=10 mM) was added and then incubated for 15 min at 37° C. in a total volume of 5 mL. The reactions were stopped with 6 mL organic solvent extraction solution of 2:1 chloroform/methanol. Accumulated 2-AG in the organic phase was measured by a HPLC/MS method, according to the following equation: percent vehicle=(2-AG accumulation in the presence of compound/2-AG accumulation in vehicle)×100.

[4] = molecular target: T4, purified mutant MGL (mut-MGLL 11-313 L179S L186S) (Homo sapiens, UniProt Q99685, L169S/L176S); assay: MGL Enzyme Activity Assay (mutant MGL, 4MU-B substrate); format: biochemical; conditions: mutant MGL 5 nM, 4MU-B 10 μM, 37° C.; read-out: MGL mutant inh IC50
T4 construct: mut-MGLL 11-313 L179S L186S
T4 sequence (Q99685 1-303 L169S/L176S): T1 sequence (Q99685 1-303) with L169S, L176S
Experimental: as §1, §2

[5] = mutant MGL, compound concentration measured by qNMR, read-out: MGL mutant ThermoFluor qKd (using qNMR conc.)
[6] = mutant MGL 0.07 mg/ml, 1,8-ANS dye, read-out: MGL mutant ThermoFluor Kd

| IC50 [1] [nM] | Kd [2, 5] [nM] | Rat Brain 2AG % VehCntrl (%) @1 μM [3] [%] | Kd [2, 6] [nM] | IC50 [4] [nM] | SMILES |
| --- | --- | --- | --- | --- | --- |
| 10 | 171 | 316 | – | – | O=C(c1ccc2c(ccn2-c2ccc(F)cc2)c1)N1CC(N2CCN(c3nccs3)C(=O)C2)C1 [Cpd 5, 4-(1-{[1-(4-Fluorophenyl)-1H-indol-5-yl]carbonyl}azetidin-3-yl)-1-(1,3-thiazol-2-yl)piperazin-2-one] |
| 29 | 621 | 302 | – | – | O=C(c1ccc2c(ccn2-c2ccc(F)cc2)c1)N1CC(N2CCN(c3cscn3)C(=O)C2)C1 [Cpd 6, 4-(1-{[1-(4-Fluorophenyl)-1H-indol-5-yl]carbonyl}azetidin-3-yl)-1-(1,3-thiazol-4-yl)piperazin-2-one] |
| 6 | – | 418 | 39.8 | – | O=C(c1ccc2c(ccn2-c2ccc(C(F)(F)F)cc2)c1)N1CC(N2CCN(c3ncccn3)C(=O)C2)C1 [Cpd 3, 1-Pyrimidin-2-yl-4-[1-({1-[4-(trifluoromethyl)phenyl]-1H-indol-5-yl}carbonyl)azetidin-3-yl]piperazin-2-one] |
| 37.9 | – | 155 | 433 | – | O=C(c1ccc2c(ccn2-c2ccc(C(F)(F)F)cc2)c1)N1CC(N2CCN(c3ncccn3)CC2=O)C1 [Cpd 24, 4-Pyrimidin-2-yl-1-[1-({1-[4-(trifluoromethyl)phenyl]-1H-indol-5-yl}carbonyl)azetidin-3-yl]piperazin-2-one] |

Second part, the compound before the results:

| SMILES | IC50 [1] [nM] | Kd [2, 5] [nM] | Rat Brain 2AG % VehCntrl (%) @1 μM [3] [%] | Kd [2, 6] [nM] | IC50 [4] [nM] |
| --- | --- | --- | --- | --- | --- |
| O=C(c1ccc(Cc2ccccc2)cc1)N1CC(N2CCN(c3ccccc3)C(=O)C2)C1 [Cpd 1, 4-(1-(4-benzylbenzoyl)azetidin-3-yl)-1-phenylpiperazin-2-one] | – | – | – | 3330 | 5280 |
| O=C(c1ccc(-c2ccccc2)cc1)N1CC(N2CCN(c3ccccc3)C(=O)C2)C1 [Cpd 2, 4-(1-([1,1′-biphenyl]-4-carbonyl)azetidin-3-yl)-1-phenylpiperazin-2-one] | – | – | – | 19700 | 4240 |
| O=C(c1sc2cc(C(F)(F)F)ccc2c1Cl)N1CC(N2CCN(c3cscn3)C(=O)C2)C1 [Cpd 7, 4-(1-{[3-Chloro-6-(trifluoromethyl)-1-benzothiophen-2-yl]carbonyl}azetidin-3-yl)-1-(1,3-thiazol-4-yl)piperazin-2-one] | 67.2 | 186 | 155 | – | – |
